Assay results published in the supplement of paper PMC10307832.

Tests used:
Assay in all cases: relative viability (nuclei count vs DMSO), 5 days (fraction); higher = more cells survive
[1] = compound: Cc1ccc(C(=O)Nc2cccc(C(F)(F)F)c2)cc1Nc1cncc(C(N)=O)c1 [ALW-II-49-7] + CC(=O)c1c(C)c2cnc(Nc3ccc(N4CCNCC4)cn3)nc2n(C2CCCC2)c1=O [Palbociclib] (partner 0.5 µM)
In short: (§1)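 Lung cancer cell lines were pin-tool dosed in 1536-well plates on the day after seeding, with either a lone drug or a fixed anchor-drug dose plus five library-drug doses (not always all listed) in √10 steps. Nuclei were counted on 4× images after 5 days. Relative viability is the ratio of treated-well to vehicle-well nuclei counts, with each value a median of duplicate plates.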

XMD13-2 + Luminespib = compound: C1CC1C(=O)NC2=NNC3=C2C=CC(=C3)C4=CC(=CC=C4)C(=O)NC5CC5 [XMD13-2] + CCNC(=O)c1noc(-c2cc(C(C)C)c(O)cc2O)c1-c1ccc(CN2CCOCC2)cc1 [Luminespib] (partner 0.01 µM)
In short: as §1

ALW-II-49-7 + Foretinib = compound: Cc1ccc(C(=O)Nc2cccc(C(F)(F)F)c2)cc1Nc1cncc(C(N)=O)c1 [ALW-II-49-7] + COc1cc2c(Oc3ccc(NC(=O)C4(C(=O)Nc5ccc(F)cc5)CC4)cc3F)ccnc2cc1OCCCN1CCOCC1 [Foretinib] (partner 0.25 µM)
In short: as §1

XMD13-2 + AZD7762 = compound: C1CC1C(=O)NC2=NNC3=C2C=CC(=C3)C4=CC(=CC=C4)C(=O)NC5CC5 [XMD13-2] + NC(=O)Nc1cc(-c2cccc(F)c2)sc1C(=O)N[C@H]1CCCNC1 [AZD7762] (partner 0.2 µM)
In short: as §1

Row | Cell Line | relative viability ([1]; first compound 0.08 µM) | relative viability ([1]; first compound 0.253 µM) | relative viability ([1]; first compound 0.8 µM) | relative viability ([1]; first compound 2.53 µM) | relative viability ([1]; first compound 8 µM) | relative viability (XMD13-2 + Luminespib; first compound 0.05 µM) | relative viability (XMD13-2 + Luminespib; first compound 0.1581 µM) | relative viability (XMD13-2 + Luminespib; first compound 0.5 µM) | relative viability (XMD13-2 + Luminespib; first compound 1.581 µM) | relative viability (XMD13-2 + Luminespib; first compound 5 µM) | relative viability (ALW-II-49-7 + Foretinib; first compound 0.08 µM) | relative viability (ALW-II-49-7 + Foretinib; first compound 0.253 µM) | relative viability (ALW-II-49-7 + Foretinib; first compound 0.8 µM) | relative viability (ALW-II-49-7 + Foretinib; first compound 2.53 µM) | relative viability (ALW-II-49-7 + Foretinib; first compound 8 µM) | relative viability (XMD13-2 + AZD7762; first compound 0.05 µM) | relative viability (XMD13-2 + AZD7762; first compound 0.1581 µM) | relative viability (XMD13-2 + AZD7762; first compound 0.5 µM) | relative viability (XMD13-2 + AZD7762; first compound 1.581 µM) | relative viability (XMD13-2 + AZD7762; first compound 5 µM)
1 | LC-2-ad | 0.455 | 0.488 | 0.435 | 0.506 | 0.526 | 1.16 | 1.06 | 0.973 | 0.992 | 0.952 | 0.863 | 0.881 | 0.929 | 0.559 | 0.905 | 0.996 | 0.94 | 0.896 | 0.928 | 0.826
2 | HARA | 0.239 | 0.265 | 0.249 | 0.261 | 0.254 | 0.995 | 0.654 | 0.779 | 0.772 | 0.707 | 0.646 | 0.836 | 1.03 | 0.887 | 1.04 | 0.301 | 0.557 | 0.263 | 0.376 | 0.37
3 | NCI-H650 | 0.277 | 0.309 | 0.351 | 0.327 | 0.236 | 0.854 | 0.757 | 0.854 | 0.822 | 0.668 | 1.16 | 1.06 | 1.01 | 0.92 | 0.638 | 1.22 | 1.02 | 1.14 | 0.847 | 1.43
4 | NCI-H1975 | 0.608 | 0.58 | 0.459 | 0.59 | 0.44 | 0.169 | 0.253 | 0.172 | 0.197 | 0.191 | 0.918 | 1.05 | 1 | 0.909 | 0.891 | 0.857 | 0.869 | 0.735 | 0.664 | 0.799
5 | NCI-H2085 | 0.441 | 0.448 | 0.466 | 0.432 | 0.454 | 0.447 | 0.494 | 0.491 | 0.497 | 0.423 | 1.08 | 0.876 | 0.989 | 1.06 | 1.02 | 0.993 | 0.995 | 1.04 | 0.848 | 1.09
6 | NCI-H3122 | 0.223 | 0.212 | 0.191 | 0.397 | 0.227 | 0.102 | 0.0949 | 0.106 | 0.105 | 0.0867 | 1.06 | 0.978 | 0.96 | 1.03 | 0.931 | 1.01 | 0.973 | 1.1 | 1 | 0.899
7 | NCI-H1651 | 0.522 | 0.476 | 0.49 | 0.439 | 0.444 | 0.969 | 0.916 | 0.714 | 0.773 | 0.886 | 0.989 | 0.631 | 0.953 | 0.678 | 0.852 | 0.515 | 0.577 | 0.486 | 0.462 | 0.511
8 | NCI-H441 | 0.182 | 0.177 | 0.249 | 0.212 | 0.188 | 0.314 | 0.382 | 0.375 | 0.432 | 0.315 | 1.02 | 1.01 | 1.14 | 1.22 | 0.854 | 1.17 | 1.29 | 1.18 | 1.14 | 1.04
9 | ABC-1 | 0.48 | 0.647 | 0.59 | 0.665 | 0.711 | 0.477 | 0.919 | 0.611 | 0.545 | 0.325 | 0.959 | 1.11 | 1.14 | 0.863 | 1.42 |  | 0.897 | 0.531 |  | 0.745
10 | NCI-H2126 | 0.367 | 0.332 | 0.337 | 0.365 | 0.374 | 0.899 | 0.977 | 0.957 | 0.832 | 0.92 | 0.805 | 0.998 | 1.21 | 0.998 | 1.11 | 1.1 | 1.04 | 0.98 | 1.04 | 0.996
11 | RERF-LC-KJ | 1.04 | 1.07 | 1.04 | 0.998 | 1.08 | 1.32 | 1.29 | 1.22 | 1.14 | 1.1 | 0.84 | 0.874 | 0.941 | 0.933 | 0.902 | 1.07 | 0.874 | 1.22 | 0.922 | 0.956
12 | NCI-H1666 | 0.663 | 0.655 | 0.692 | 0.67 | 0.666 | 1 | 0.992 | 0.965 | 1.03 | 1.01 | 0.954 | 0.887 | 0.964 | 1.05 | 1.05 | 0.849 | 0.89 | 0.927 | 0.81 | 0.807
13 | PC-14 | 0.454 | 0.568 | 0.471 | 0.551 | 0.41 | 0.133 | 0.192 | 0.118 | 0.151 | 0.154 | 0.935 | 0.634 | 0.841 | 0.924 | 0.89 | 0.392 | 0.337 | 0.464 | 0.329 | 0.446
14 | NCI-H1915 | 0.618 | 0.595 | 0.543 | 0.453 | 0.414 | 0.867 | 0.859 | 0.833 | 0.717 | 0.635 | 1.17 | 1.07 | 1.06 | 0.864 | 0.816 | 0.675 | 0.774 | 0.708 | 0.696 | 0.646
15 | NCI-H1944 | 0.353 | 0.32 | 0.327 | 0.346 | 0.351 | 0.797 | 0.756 | 0.758 | 0.899 | 0.697 | 0.997 | 0.801 | 0.964 | 0.846 | 0.954 | 0.555 | 0.473 | 0.488 | 0.75 | 0.551
16 | PC-3 [JPC-3] | 0.536 | 0.595 | 0.546 | 0.561 | 0.558 | 0.681 | 0.661 | 0.64 | 0.776 | 0.782 | 0.995 | 1.09 | 1.01 | 1.01 | 1.02 | 0.818 | 0.868 | 0.9 |  | 0.718
